Test results from patent publication US20230165869A1, “DIAZINE AND TRIAZINE COMPOUNDS TO TREAT CYTOKINE STORM SYNDROME” (UNIVERSITY OF GREENWICH, priority 2020, published 2023).
Read-outs that look alike come from different tables or passages of the source.

Experiments:
[1] = system: Interleukin-1β; assay: Interleukin-1β secretion from LPS-stimulated PBMCs; format: cell-based; details: stimulated human PBMCs, result in words
Experimental: (§1) The compounds of Formula (I) may be investigated for inhibition of pro-inflammatory cytokines Interleukin (IL)-[…], 6,8 and 17A, Interferon (IFN)-gamma and Tumour necrosis factor (TNF)-α in peripheral blood mononuclear cells (PBMCs) isolated from fresh human buffy coats by centrifugation on Lymphoprep™ (Stemcell Technologies). All human cells are grown in cell culture medium RPMI-1640 supplemented with 1% penicillin/streptomycin and 5% heat inactivated fetal bovine serum.
(§2) PBMCs stimulated with LPS (Salmonella enterica serotype typhimurium) are incubated for 24 hours containing the compounds under investigation, reconstituted in dimethyl sulfoxide (DMSO). The secreted levels of Interleukin-1β and Interleukin-6 are measured in the cell culture supernatant using a cytometric bead array and the cell viability is quantified using Trypan blue.

[2] = system: Interleukin-6; assay: Interleukin-6 secretion from LPS-stimulated PBMCs; format: cell-based; details: stimulated human PBMCs, result in words
Experimental: as §1, §2

[3] = system: Interleukin-8; assay: Interleukin-8 secretion from PBMCs stimulated with TNF-α and IL-17A; format: cell-based; details: stimulated human PBMCs, result in words
Experimental: as §1
(§3) PBMCs stimulated with a mixture between TNF-α and IL-17A are incubated for 24 hours whilst containing the compounds under investigation, reconstituted in DMSO. The secreted levels of Interleukin-8 are measured in the cell culture supernatant using a cytometric bead array and the cell viability is quantified using Trypan blue.

[4] = system: Interleukin-17A; assay: Interleukin-17A secretion from PMA/ionomycin-stimulated PBMCs; format: cell-based, human; details: for inhibition of IL-17 / IL-17A: stimulated human PBMCs, result in words
Experimental: as §1
as §3, with “PMA/ionomycin” for “a mixture between TNF-α and IL-17A”, “hours” for “hours whilst”, “Interleukin-17A” for “Interleukin-8”
(§4) 3,5-Diamino-6-(diphenylmethyl)-1,2,4-triazine was also investigated for […] inhibition in a human PBMC model: […]

[5] = system: Interferon-gamma; assay: Interferon-gamma secretion from PMA/ionomycin-stimulated PBMCs; format: cell-based; details: stimulated human PBMCs, result in words
Experimental: as §1
(§5) PBMCs stimulated with PMA/ionomycin are incubated for 24 hours containing the compounds under investigation, reconstituted in DMSO. The secreted levels of Interferon-gamma and Tumour necrosis factor-α are measured in the cell culture supernatant using a Human Quantikine ELISA Kit and the cell viability is quantified using Trypan blue.

[6] = system: Tumour necrosis factor-α; assay: Tumour necrosis factor-α secretion from PMA/ionomycin-stimulated PBMCs; format: cell-based; details: stimulated human PBMCs, result in words
Experimental: as §1, §5

[7] = system: IL-2; assay: IL-2 release from stimulated CD4-positive T cells; format: cell-based, human
Experimental: (§6) The compounds may be investigated for inhibition of pro-inflammatory cytokines Interleukin-2, 4 and 13 in human CD4-positive T cells isolated from fresh isolated PBMCS using a CD4-positive T cell isolation kit.
(§7) CD4-positive T cells stimulated with beads coated with antibodies against CD2, CD3 and CD28 are incubated for 48 hours containing the compounds under investigation, reconstituted in DMSO. The secreted levels of Interleukin-2, 4 and 13 are measured in the cell culture supernatant using a cytometric bead array and the cell viability is measured using an MTT (3-(4,5-dimethylthiazol-2-yl)-2,5-diphenyltetrazolium bromide) assay.
(§8) Secreted IL-4 levels may be measured using electrochemiluminescence (MSD kits, Meso Scale Discovery), while secreted IL-2 levels may be measured using proximity homogenous time-resolved fluorescence (HTRF) and the amount of living cells may be measured by addition of resazurin (PrestoBlue®).

[8] = system: IL-4; assay: IL-4 release from stimulated CD4-positive T cells; format: cell-based, human
Experimental: as §6, §7, §8

[9] = system: T cell; assay: T cell proliferation in the IL-2/IL-4 inhibition assays; format: cell-based, human
Experimental: as §6, §7, §8

[10] = PBMC viability in the IL-17A human PBMC model; format: cell-based; details: PBMCs stimulated with PMA/ionomycin; human PBMC model, maximum effect; read-out: Inhibition of PMBC viability, Max effect
Experimental: as §3, with “PMA/ionomycin” for “a mixture between TNF-α and IL-17A”, “hours” for “hours whilst”, “Interleukin-17A” for “Interleukin-8”
as §4

[11] = system: PBMC; assay: PBMC viability in the IL-17A human PBMC model; format: cell-based; details: Homo sapiens, PBMC
Experimental: as §3, with “PMA/ionomycin” for “a mixture between TNF-α and IL-17A”, “hours” for “hours whilst”, “Interleukin-17A” for “Interleukin-8”
as §4

Nc1nnc(-c2sc(Cl)c(Cl)c2Cl)c(N)n1 [Compound 1, 3,5-diamino-6-[2-(3,4,5-trichlorothienyl)]-1,2,4-triazine]
inhibition of IL-1β [1]: high inhibition
inhibition of IL-6 [2]: high inhibition
inhibition of IL-8 [3]: high inhibition
inhibition of IL-17 / IL-17A [4]: moderate inhibition
inhibition of IFN-γ [5]: high inhibition
inhibition of TNF-α [6]: high inhibition

Nc1nnc(C(c2ccccc2)c2ccccc2)c(N)n1 [Compound 2, 3,5-Diamino-6-(diphenylmethyl)-1,2,4-triazine]
inhibition of IL-1β [1]: moderate inhibition
inhibition of IL-6 [2]: moderate inhibition
inhibition of IL-8 [3]: high inhibition
EC50 ([4]; human PBMC model, absolute EC50, read-out: Inhibition of IL-17A release, Abs EC50): 317 nM
Emax ([4]; human PBMC model, maximum effect, read-out: Inhibition of IL-17A release, Max effect): 86%
EC50 ([4]; human PBMC model, relative EC50, read-out: Inhibition of IL-17A release, Rel EC50): 261 nM
inhibition of IL-17 / IL-17A [4]: high inhibition
inhibition of IFN-γ [5]: high inhibition
inhibition of TNF-α ([6]; at the top concentration): high inhibition
EC50 ([7]; Homo sapiens, CD4 positive, absolute EC50, read-out: Inhibition of IL-2 release, Abs EC50): 15 nM
Emax ([7]; Homo sapiens, CD4 positive, maximum effect, read-out: Inhibition of IL-2 release, Max Effect): 97%
EC50 ([7]; Homo sapiens, CD4 positive, relative EC50, read-out: Inhibition of IL-2 release, Rel EC50): 28 nM
inhibition of IL-2 ([7]; result in words): good level of inhibition
EC50 ([8]; Homo sapiens, CD4 positive, absolute EC50, read-out: Inhibition of IL-4 release, Abs EC50): 61.3 nM
Emax ([8]; Homo sapiens, CD4 positive, maximum effect, read-out: Inhibition of IL-4 release, Max Effect): 99%
EC50 ([8]; Homo sapiens, CD4 positive, relative EC50, read-out: Inhibition of IL-4 release, Rel EC50): 50.5 nM
EC50 ([8]; relative EC50, read-out: Inhibition of IL-4 release, Rel EC50): 58.4 nM
inhibition of IL-4 ([8]; result in words): good level of inhibition
EC50 ([9]; Homo sapiens, T-cell, absolute EC50, read-out: Inhibition of T cell proliferation, Abs EC50): > 10000 nM
Emax ([9]; Homo sapiens, T-cell, maximum effect, read-out: Inhibition of T cell proliferation, Max Effect): 28%
EC50 ([9]; Homo sapiens, T-cell, relative EC50, read-out: Inhibition of T cell proliferation, Rel EC50): > 10000 nM
inhibition of T cell proliferation ([9]; result in words): without significant inhibition
cytotoxicity at 24 h [10]: 38%
EC50 ([11]; read-out: Inhibition of PMBC viability, Abs EC50): > 10000 nM
EC50 ([11]; read-out: Inhibition of PMBC viability, Rel EC50): 44000 nM
